Results reported in article PMC3881575, “Biochemical and Bioinformatic Characterization of Type II Metacaspase Protein (TaeMCAII) from Wheat” (Plant Molecular Biology Reporter, 2012).

Assays:
Experiment in all cases: colorimetric pNA release, […] nm
Assay type in all cases: biochemical
TaeMCAII [1] = target: T1, TaeMCAII (Triticum aestivum, UniProt D1MBU0, DEL149-214); conditions: 50 μM Ac-VRPR-pNa, pH 7.0, 30 mM CaCl2, 10 mM DTT; 1 h preincubation at 30°C; irreversible, covalent
T1 construct: gene MCAII; full-length ORF (405 residues, 44 kDa) in pET-28a(+), N-terminal His6 tag, E. coli BL21(DE3)pLysS, Ni-NTA; autoprocessed after Lys148 and Arg214 (66-residue linker removed) into 16 kDa N-terminal and 20 kDa C-terminal subunits
T1 sequence (D1MBU0 1-148): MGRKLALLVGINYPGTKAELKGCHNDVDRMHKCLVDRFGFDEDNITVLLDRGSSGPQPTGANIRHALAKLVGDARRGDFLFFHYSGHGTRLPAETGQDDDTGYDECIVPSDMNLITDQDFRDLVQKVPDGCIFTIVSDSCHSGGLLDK
T1 sequence (D1MBU0 215-405): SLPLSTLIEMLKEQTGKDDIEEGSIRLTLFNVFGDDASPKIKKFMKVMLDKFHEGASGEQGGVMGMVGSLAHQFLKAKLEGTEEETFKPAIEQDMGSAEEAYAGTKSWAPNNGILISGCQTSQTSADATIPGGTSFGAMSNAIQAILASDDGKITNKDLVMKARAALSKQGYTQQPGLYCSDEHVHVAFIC

TaeMCAII [2] = target: T1, TaeMCAII; conditions: 50 μM Ac-VRPR-pNa, pH 7.0, 30 mM CaCl2, 10 mM DTT; 1 h preincubation at 30°C; irreversible, covalent; remark: listed apart in the source
TaeMCAII [3] = target: T1, TaeMCAII; conditions: 50 μM Ac-VRPR-pNa, pH 7.0, 30 mM CaCl2, 10 mM DTT; 1 h preincubation at 30°C; competitive

Q: With `CC(C)C[C@H](NC(=O)[C@@H]1O[C@H]1C(=O)O)C(=O)NCCCCN=C(N)N` [E-64, 1-trans-epoxysuccinylleucylamide-(4-guanido)-butane] as the compound, how does the “% activity retained at 100 μM” value (TaeMCAII [1]) read?
A: Its value is 89%.

Q: With `Cc1ccc(S(=O)(=O)N[C@@H](CCCCN)C(=O)CCl)cc1` [TLCK, N^α-tosyl-L-lysine-chloromethyl ketone] as the compound, how does the “% decrease of activity at 100 μM” value (TaeMCAII [2]) read?
A: Its value is 43%.

Q: For `CC(=O)N[C@@H](CC(C)C)C(=O)N[C@@H](CC(C)C)C(=O)N[C@H](C=O)CCCNC(=N)N` [leupeptin], which “% decrease of activity at 10 μM” value (TaeMCAII [3]) is on record?
A: Its value is 88%.
